In patent publication US20240425515A1, “COMPOUND OF THE 7A,8,9,10,11,11A-HEXAHYDRO-1H,7H-PYRANO[2,3-C]XANTHENE TYPE, METHOD OF PREPARATION THEREOF, INTERMEDIATES THEREOF AND THERAPEUTIC APPLICATIONS THEREOF” (CENTRE NATIONAL DE LA RECHERCHE SCIENTIFIQUE, priority 2021, published 2024):

Tests used:
[1] = target: ORD domain (OSBP-Related Domain) of the protein OSBP (Homo sapiens (Human), UniProt P22059); test: Inhibition of DHE transport between liposomes catalyzed by the purified ORD domain of OSBP (FRET, robotized assay); type: biochemical; settings: purified ORD domain 200 nM, liposomes 130 μM, 37° C., compound 50 nM to 3 μM, triplicate; read-out: Affinity for the target OSBP (Ki)
ORD domain (OSBP-Related Domain) of the protein OSBP, sequence (P22059 401-807): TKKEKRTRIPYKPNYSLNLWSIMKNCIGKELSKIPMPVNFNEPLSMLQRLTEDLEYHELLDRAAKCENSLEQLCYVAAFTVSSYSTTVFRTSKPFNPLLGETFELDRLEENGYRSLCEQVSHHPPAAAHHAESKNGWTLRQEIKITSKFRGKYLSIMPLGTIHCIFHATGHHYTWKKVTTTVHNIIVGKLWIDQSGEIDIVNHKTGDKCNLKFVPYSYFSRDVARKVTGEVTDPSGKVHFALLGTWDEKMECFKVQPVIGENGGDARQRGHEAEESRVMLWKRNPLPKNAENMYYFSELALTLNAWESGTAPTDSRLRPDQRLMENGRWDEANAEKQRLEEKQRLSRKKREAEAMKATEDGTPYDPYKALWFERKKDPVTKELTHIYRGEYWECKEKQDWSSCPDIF
Experimental: Measurement of the inhibitory activity on OSBP is carried out by a robotized assay in the ORD domain (OSBP-Related Domain, in English) purified of the protein OSBP. The measurements are carried out according to a protocol using two preparations of liposomes: • The donor liposomes (A) contain a fluorescent sterol (DHE (dehydroergosterol)); • The acceptor liposomes (B) contain a fluorescent lipid (dansyl PE (1,2-dioleoyl-sn-glycero-3-phosphoethanolamine-N-(5-dimethylamino-1-naphthalenesulfonyl) (ammonium salt)) whose excitation spectrum covers the emission spectrum of DHE.
Transport of DHE from liposomes A to liposomes B catalyzed by the ORD domain is accompanied by a FRET signal between DHE and Dansyl-PE. Based on this signal, the kinetics of transport can be measured in real time. This measurement of fluorescence is carried out on a microplate in a TECAN Infinite 1000 Pro instrument (temperature=37° C.). At the beginning, each measurement well contains liposomes B (130 μM), ORD domain (200 nM) and the test compound. At time t=5 min, liposomes A (130 μM) are added to start the exchange reaction. Each compound is tested in triplicate for final concentrations from 50 nM to 3 μM. The time constant (k) obtained for the kinetics in each case is then represented as a function of the concentration of the analog. From this representation, an inhibition constant is determined for each compound. The affinity constants Ki are classified as follows: • Very strong affinity Ki<10 nM • Good affinity Ki from 10 to 100 nM • Low affinity Ki from 100 to 2000 nM
The compounds, other than the prodrugs, having a Ki<100 nM are regarded as active on OSBP.

[2] = system: human glioblastoma cells U87-MG; test: Cytotoxicity on U87-MG, CellTiter Glo viability after 72 h; type: cell-based; settings: U-87 MG
Experimental: (§1) The lines U87-MG and A549 were obtained from the American Type Culture Collection (Rockville, MD, USA) and were cultured according to the supplier's instructions. The human glioblastoma cells U87-MG were cultured in Dulbecco […] (DMEM) containing 10% of FCS and 1% of L-glutamine. The lung cancer cells A549 were cultured in RPMI1640 medium containing 10% of FCS and 1% of L-glutamine. The cell lines were maintained at 37° C. in a humidified atmosphere containing 5% CO2. The products were tested at 10 concentrations in triplicate and the cellular viability was evaluated after 72 h of treatment using the CellTiter Glo assay (Promega), which allows the number of live cells to be measured by luminescence (quantification of ATP).
(§2) Thus, the cells were seeded in 96-well plates (2.5×10^3 cells/well) each containing 90 μL of growth medium. After culture for 24 hours, the wells were supplemented with 10 μL of medium containing ten decreasing concentrations of the test compound dissolved in DMSO (less than 0.1% in each preparation). After incubation for 72 h, 100 μL of Cell Titer GLo reagent was added in the space of 15 min before quantifying the luminescence emitted using a microplate reader. The dose-response curve was analyzed using Graph Prism software and the activity of the molecules is expressed in the form of IC50.

lung cancer cells A549 = test: Cytotoxicity on A549, CellTiter Glo viability after 72 h; type: cell-based; settings: Homo sapiens, A549, 72 h
Experimental: as §1, §2

[3] = Metabolic stability in mouse hepatic microsomes (LC-MS/MS); type: in vitro ADME; settings: mouse microsomes 0.5 mg/mL, 2.5 μM, NADPH
Experimental: (§3) The compounds are placed in mouse plasma and mouse microsomes, and their stability is evaluated by monitoring by UPLC-MS/MS.
(§4) For plasma stability, the concentration tested is 2.5 μM and the incubation volume is 50 μL. The incubation times are 0, 15, 30, 45, 60 and 120 minutes. Protein precipitation is then performed on the samples, and then the latter are analyzed by UPLC-MS/MS. The percentage of the compound remaining as well as its elimination half-life are thus obtained. For the metabolic stability in microsomes, the concentration of test compound is 2.5 μM, and the incubation volume is 400 μL. The concentration of mouse microsomes is 0.5 mg/mL. The incubation times are 0, 15, 30 and 45 minutes. The cofactor used is NADPH. Two negative controls are carried out, one without microsomes and without cofactor at 0 and 45 minutes, and one without cofactor and with microsome at 0 and 45 minutes. A positive control is carried out in the presence of diphenhydramine. The samples are analyzed by LC-MS/MS. The intrinsic clearance and the half-life are thus obtained.
(§5) LC-MS/MS is carried out on a UPLC Acquity™ coupled to a XEVO TQ-S(WATERS).
(§6) Liquid chromatography is carried out on an Acquity UPLC column BEH 1.7 μm, 2.1×50 mm with a gradient of 4 minutes water+0.1% […]/acetonitrile 95:5 to 100:0. The column temperature is +50° C. and the temperature of the injector is +4° C. Acquisition in mass spectrometry is performed by MRM (Multiple Reaction Monitoring), with positive electrospray ionization.

[4] = Stability in mouse plasma (UPLC-MS/MS); type: in vitro ADME; settings: 2.5 μM
Experimental: as §3, §4, §5, §6

SMILES | Ki [1] [nM] | IC50 [2] [nM] | IC50 (lung cancer cells A549) [µM] | clearance in microsomal medium (intrinsic clearance) [3] | metabolic stability in mouse microsomes [3] [%] | metabolic stability in mouse plasma at 120 minutes (percentage of compound remaining) [4] [%]
COCOc1cc2oc(-c3ccccc3)cc(=O)c2c2c1C[C@@H]1C(C)(C)[C@H](O)CC[C@@]1(C)O2 (racemic) [Compound 1, (7aR*9R*,11aR*)-9-hydroxy-6-(methoxymethoxy)-8,8,11a-trimethyl-3-phenyl-7a,8,9,10,11,11a-hexahydro-1H,7H-pyrano[2,3-c]xanthen-1-one] | < 10 | 540 | 5.08 | – | – | –
COCOc1cc2oc(-c3ccccc3)cc(=O)c2c2c1C[C@@H]1C(C)(C)[C@H](OCOC)CC[C@@]1(C)O2 (racemic) [Compound 2, (7aR*,9R*,11aR*)-6,9-bis(methoxymethoxy)-8,8,11a-trimethyl-3-phenyl-7a,8,9,10,11,11a-hexahydro-1H,7H-pyrano[2,3-c]xanthen-1-one] | 100 to 2000 | > 10000 | > 10 | – | – | –
CC1(C)[C@H](O)CC[C@@]2(C)Oc3c(c(O)cc4oc(-c5ccccc5)cc(=O)c34)C[C@H]12 (racemic) [Compound 3, (7aR*,9R*,11aR*)-6,9-dihydroxy-8,8,11a-trimethyl-3-phenyl-7a,8,9,10,11,11a-hexahydro-1H,7H-pyrano[2,3-c]xanthen-1-one] | < 10 | 340 | 3.4 | 152 μL/min/mg of protein | 88 | 99
COCOc1cc2oc(-c3ccccc3)cc(=O)c2c2c1C[C@@H]1C(C)(C)[C@H](O)CC[C@@]1(C)O2 [Compound 4, (7aR,9R,11aR)-9-hydroxy-6-(methoxymethoxy)-8,8,11a-trimethyl-3-phenyl-7a,8,9,10,11,11a-hexahydro-1H,7H-pyrano[2,3-c]xanthen-1-one] | 10 to 100 | 440 | – | – | – | –
CC1(C)[C@H](O)CC[C@@]2(C)Oc3c(c(O)cc4oc(-c5ccccc5)cc(=O)c34)C[C@H]12 [Compound 5, (7aR,9R,11aR)-6,9-dihydroxy-8,8,11a-trimethyl-3-phenyl-7a,8,9,10,11,11a-hexahydro-1H,7H-pyrano[2,3-c]xanthen-1-one] | < 10 | 280 | 1.38 | – | – | –
COCOc1cc2oc(-c3ccccc3)cc(=O)c2c2c1C[C@H]1C(C)(C)[C@@H](O)CC[C@]1(C)O2 [Compound 6, (7aS,9S,11aS)-9-hydroxy-6-(methoxymethoxy)-8,8,11a-trimethyl-3-phenyl-7a,8,9,10,11,11a-hexahydro-1H,7H-pyrano[2,3-c]xanthen-1-one] | 100 to 2000 | 4310 | > 10 | – | – | –
CC1(C)[C@@H](O)CC[C@]2(C)Oc3c(c(O)cc4oc(-c5ccccc5)cc(=O)c34)C[C@@H]12 [Compound 7, (7aS,9S,11aS)-6,9-dihydroxy-8,8,11a-trimethyl-3-phenyl-7a,8,9,10,11,11a-hexahydro-1H,7H-pyrano[2,3-c]xanthen-1-one] | < 10 | 1890 | – | – | – | –
COCOc1ccc(-c2cc(=O)c3c4c(c(OCOC)cc3o2)C[C@@H]2C(C)(C)[C@H](O)CC[C@@]2(C)O4)cc1 [Compound 8, (7aR,9R,11aR)-9-hydroxy-6-(methoxymethoxy)-3-(4-(methoxymethoxy)phenyl)-8,8,11a-trimethyl-7a,8,9,10,11,11a-hexahydro-1H,7H-pyrano[2,3-c]xanthen-1-one] | 10 to 100 | 160 | – | – | – | –
CC1(C)[C@H](O)CC[C@@]2(C)Oc3c(c(O)cc4oc(-c5ccc(O)cc5)cc(=O)c34)C[C@H]12 [Compound 9, (7aR,9R,11aR)-6,9-dihydroxy-3-(4-hydroxyphenyl)-8,8,11a-trimethyl-7a,8,9,10,11,11a-hexahydro-1H,7H-pyrano[2,3-c]xanthen-1-one] | – | 3780 | – | 26 μL/min/mg of protein | 100 | 100
COCOc1ccc(-c2oc3cc(OCOC)c4c(c3c(=O)c2OCOC)O[C@]2(C)CC[C@@H](O)C(C)(C)[C@H]2C4)cc1 [Compound 10, (7aR,9R,11aR)-9-hydroxy-2,6-bis(methoxymethoxy)-3-(4-(methoxymethoxy)phenyl). 8,8,11a-trimethyl-7a,8,9,10,11,11a-hexahydro-1H,7H-pyrano[2,3-c]xanthen-1-one] | – | 4340 | – | 52 μL/min/mg of protein | 99 | 90
CC1(C)[C@H](O)CC[C@@]2(C)Oc3c(c(O)cc4oc(-c5ccc(O)cc5)c(O)c(=O)c34)C[C@H]12 [Compound 11, (7aR,9R,11aR)-2,6,9-trihydroxy-3-(4-hydroxyphenyl)-8,8,11a-trimethyl-7a,8,9,10,11,11a-hexahydro-1H,7H-pyrano[2,3-c]xanthen-1-one] | – | 2300 | 6.3 | – | – | –
